Patent US11857533B2, “Composition for preventing or treating obesity or lipid-related metabolic disorders” (Nexyon Biotech Co., Ltd., priority 2019, dated 2024)

Key:
Assay type in all cases: in vivo, C57BL/6 mice
[1] = system: high-fat-diet-induced obesity mouse model; assay: Weight loss effect in high-fat-diet-induced obesity mouse model; details: irosustat 10 mg/kg orally once a day, 60% high-fat diet
Procedure: (§1) 8-week-old C57BL/6 mice were fed with a 60% high-fat diet, and a vehicle or irosustat (10 mg/kg) prepared in Preparation Example 1 was administered orally to the mice once a day for a total of 10 days.

[2] = system: high-fat-diet-induced obesity mouse model; assay: Fat mass and lean mass by DEXA in high-fat-diet-induced obesity mouse model; details: 10 mg/kg orally once a day for 13 weeks, vs vehicle
Procedure: as §1
An experiment was performed under the same conditions as in Experimental Example 1 above, except that the mice were imaged using DEXA (Dual-energy X-ray absorptiometry) after the vehicle or irosustat was administered orally to the mice for 13 weeks.

[3] = system: high-fat-diet-induced obesity mouse model; assay: Adipocyte size in abdominal fat tissue, high-fat-diet-induced obesity mouse model; details: 10 mg/kg orally once a day for 13 weeks, vs vehicle
Procedure: as §1
An experiment was performed under the same conditions as in Experimental Example 1 above, except that the mice were euthanized after oral administration of irosustat for 13 weeks and abdominal fat tissue was taken and then imaged with a microscope. In addition, the areas of adipocytes in the abdominal fat tissue in the control group and the drug-administered group were measured, and the results are shown in FIG. 5.

[4] = system: high-fat-diet-induced obesity mouse model; assay: Hepatic steatosis amelioration, liver tissue microscopy, high-fat-diet-induced obesity mouse model; details: 10 mg/kg orally once a day for 13 weeks, vs vehicle
Procedure: as §1
An experiment was performed under the same conditions as in Experimental Example 1 above, except that the mice were euthanized after oral administration of irosustat for 13 weeks and hepatic tissue was taken and then imaged with a microscope.

[5] = system: high-fat-diet-induced obesity mouse model; assay: Glucose tolerance test (GTT) in high-fat-diet-induced obesity mouse model; details: 10 mg/kg orally for 11 weeks, 16 h fast, glucose 1 g/kg i.p., 0-120 min, vs vehicle
Procedure: as §1
An experiment was performed under the same conditions as in Experimental Example 1 above, except that the mice were fasted for 16 hours after oral administration of irosustat for 11 weeks, and glucose was injected intraperitoneally into the mice at a dose of 1 g/kg body weight. 0 min, 15 min, 30 min, 60 min, 90 min and 120 min after intraperitoneal injection, blood was collected from the tail of each mice and the glucose level in the blood was measured. However, during the glucose tolerance test, a stable environment was provided to the experimental animals. In addition, AUC (area under the glucose-time curve) was measured using the following Equation 1 and the results are shown in FIG. 8. In Equation 1, C0, C15, C30, C60, C90 and C120 are glucose levels measured at 0 min, 15 min, 30 min, 60 min, 90 min and 120 min, respectively. AUC=0.5×(0.5×C0+C15+C30+C60+C90+0.5×C120) [Equation 1]

[6] = system: high-fat-diet-induced obesity mouse model; assay: Insulin tolerance test (ITT) in high-fat-diet-induced obesity mouse model; details: 10 mg/kg orally for 12 weeks, 2 h fast, insulin 0.8 units/kg i.p., 0-120 min, vs vehicle
Procedure: as §1
An experiment was performed under the same conditions as in Experimental Example 1 above, except that the mice were fasted for 2 hours after oral administration of irosustat for 12 weeks, and then the blood glucose levels of the mice were measured and insulin was injected intraperitoneally into the mice at a dose of 0.8 units/kg body weight. 0 min, 15 min, 30 min, 60 min, 90 min and 120 min after intraperitoneal injection, blood was collected from the tail of each mice and the glucose level in the blood was measured.

[7] = system: high-fat-diet-induced obesity mouse model; assay: Blood cholesterol and triglyceride levels in high-fat-diet-induced obesity mouse model; details: 10 mg/kg orally once a day for 13 weeks, vs vehicle
Procedure: as §1
An experiment was performed under the same conditions as in Experimental Example 1 above, except that the blood cholesterol and triglyceride levels in the control group and the drug-administered group were measured after oral administration of irosustat for 13 weeks. The results of measurement of the cholesterol and triglyceride levels are shown in FIGS. 11 and 12, respectively.

NS(=O)(=O)Oc1ccc2c3c(c(=O)oc2c1)CCCCC3 [irosustat, (6-oxo-8,9,10,11-tetrahydro-7H-cyclohepta[c]chromen-3-yl) sulfamate]
body weight ([1]; C57BL/6 mice, vehicle control 36.4+/−3.4 g): 31.4 ± 5.0 g
decrease of body weight compared to control group ([1]; vs vehicle): about 14%
fat mass [2]: significantly decreased
size of adipocytes in abdominal fat tissue [3]: significantly decreased
findings of hepatic steatosis caused by the high-fat diet [4]: significantly improved
blood glucose level in glucose tolerance test (time course and AUC) [5]: significantly decreased
blood glucose level in insulin tolerance test (time course and AUC) [6]: significantly decreased
blood cholesterol level [7]: significantly decreased
blood triglyceride level [7]: significantly decreased
